According to patent US11547681B2, “N-acylethanolamide derivatives and uses thereof” (ELIEM THERAPEUTICS, INC., priority 2016, dated 2023):

How the values were obtained:
in vitro [1] = settings: male, Beagle, dog
Method in brief: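 Percent remaining relative to time 0 and half-life (single-phase exponential fit) were derived from LC-MS/MS measurement of the dosed prodrug and its expected drug, PEA. Incubations contained 1 μM test article at 37 °C, were initiated with cofactor cocktail and were sampled up to 60 min.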

in vitro [2] = settings: male, Sprague-Dawley, rat
Method in brief: (§1)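 Test article (1 μM final) pre-equilibrated with intestinal S9 at 37 °C, then reaction started with cofactor cocktail; sampled at 0, 10, 20, 30 and 60 min and quenched in acidified acetonitrile. Prodrug and released PEA quantified by LC-MS/MS; half-life from single-phase exponential fit of percent remaining versus time 0.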

in vitro [3] = settings: both, human
Method in brief: as §1

CCCCCCCCCCCCCCCC(=O)NCCOC(=O)CCC(=O)OCC(O)CO (stereo not drawn) [Compound I-9]
Concentration (μM) of analyte PEA, 0 min (in vitro [1]; 0 min, 1 μM): 0.26 µM
Concentration (μM) of analyte PEA, 10 min (in vitro [1]; 10 min, 1 μM): 0.48 µM
Concentration (μM) of analyte PEA, 20 min (in vitro [1]; 20 min, 1 μM): 0.47 µM
Concentration (μM) of analyte PEA, 30 min (in vitro [1]; 30 min, 1 μM): 0.46 µM
Concentration (μM) of analyte PEA, 60 min (in vitro [1]; 60 min, 1 μM): 0.45 µM
% Remaining of Initial (n = 1), 0 min (in vitro [1]; s9, 0 h, 1 μM): 100%
% Remaining of Initial (n = 1), 10 min (in vitro [1]; s9, 10 min, 1 μM): <1.0%
% Remaining of Initial (n = 1), 20 min (in vitro [1]; s9, 20 min, 1 μM): <1.0%
% Remaining of Initial (n = 1), 30 min (in vitro [1]; s9, 0.5 h, 1 μM): <1.0%
% Remaining of Initial (n = 1), 60 min (in vitro [1]; s9, 1 h, 1 μM): <1.0%
microsomal CLint at 1 μM (in vitro [1]; s9, CLint (mL/min/mg protein)): > 691 µL/min/mg
half-life at 1 μM (in vitro [1]; s9, Half-life (min)): < 1 min
Concentration (μM) of analyte PEA, 0 min (in vitro [2]; 0 min, 1 μM): 0.034 µM
Concentration of analyte I-9 (in vitro [2]; 0 min, 1 μM): 770 nM
Concentration of analyte PEA (in vitro [2]; 0 min, 1 μM): 31 nM
Concentration (μM) of analyte PEA, 10 min (in vitro [2]; 10 min, 1 μM): 0.22 µM
Concentration of analyte I-9 (in vitro [2]; 10 min, 1 μM): 910 nM
Concentration of analyte PEA (in vitro [2]; 10 min, 1 μM): 88 nM
Concentration (μM) of analyte PEA, 20 min (in vitro [2]; 20 min, 1 μM): 0.31 µM
Concentration of analyte I-9 (in vitro [2]; 20 min, 1 μM): 680 nM
Concentration of analyte PEA (in vitro [2]; 20 min, 1 μM): 130 nM
Concentration (μM) of analyte PEA, 30 min (in vitro [2]; 30 min, 1 μM): 0.36 µM
Concentration of analyte I-9 (in vitro [2]; 30 min, 1 μM): 580 nM
Concentration of analyte PEA (in vitro [2]; 30 min, 1 μM): 160 nM
Concentration (μM) of analyte PEA, 60 min (in vitro [2]; 60 min, 1 μM): 0.39 µM
Concentration of analyte I-9 (in vitro [2]; 60 min, 1 μM): 380 nM
Concentration of analyte PEA (in vitro [2]; 60 min, 1 μM): 240 nM
% Remaining of Initial (n = 1) (in vitro [2]; s9, 0 h, 1 μM): 100%
% Remaining of Initial (n = 1), 0 min (in vitro [2]; s9, 0 h, 1 μM): 100%
% Remaining of Initial (n = 1) (in vitro [2]; s9, 10 min, 1 μM): 119%
% Remaining of Initial (n = 1), 10 min (in vitro [2]; s9, 10 min, 1 μM): 45%
% Remaining of Initial (n = 1) (in vitro [2]; s9, 20 min, 1 μM): 88%
% Remaining of Initial (n = 1), 20 min (in vitro [2]; s9, 20 min, 1 μM): 26%
% Remaining of Initial (n = 1) (in vitro [2]; s9, 0.5 h, 1 μM): 75%
% Remaining of Initial (n = 1), 30 min (in vitro [2]; s9, 0.5 h, 1 μM): 15%
% Remaining of Initial (n = 1) (in vitro [2]; s9, 1 h, 1 μM): 49%
% Remaining of Initial (n = 1), 60 min (in vitro [2]; s9, 1 h, 1 μM): 3.6%
microsomal CLint at 1 μM (in vitro [2]; s9, CLint): 125 µL/min/mg
half-life at 1 μM (in vitro [2]; s9, Half-life): 55 min
Concentration (μM) of analyte PEA, 0 min (in vitro [3]; 0 min, 1 μM): 0.048 µM
Concentration of analyte I-9 (in vitro [3]; 0 min, 1 μM): 610 nM
Concentration of analyte PEA (in vitro [3]; 0 min, 1 μM): 210 nM
Concentration (μM) of analyte PEA, 10 min (in vitro [3]; 10 min, 1 μM): 0.18 µM
Concentration of analyte I-9 (in vitro [3]; 10 min, 1 μM): 360 nM
Concentration of analyte PEA (in vitro [3]; 10 min, 1 μM): 500 nM
Concentration (μM) of analyte PEA, 20 min (in vitro [3]; 20 min, 1 μM): 0.23 µM
Concentration of analyte I-9 (in vitro [3]; 20 min, 1 μM): 99 nM
Concentration of analyte PEA (in vitro [3]; 20 min, 1 μM): 690 nM
Concentration (μM) of analyte PEA, 30 min (in vitro [3]; 30 min, 1 μM): 0.22 µM
Concentration of analyte I-9 (in vitro [3]; 30 min, 1 μM): 29 nM
Concentration of analyte PEA (in vitro [3]; 30 min, 1 μM): 650 nM
Concentration (μM) of analyte PEA, 60 min (in vitro [3]; 60 min, 1 μM): 0.18 µM
Concentration of analyte I-9 (in vitro [3]; 60 min, 1 μM): 4.3 nM
Concentration of analyte PEA (in vitro [3]; 60 min, 1 μM): 660 nM
% Remaining of Initial (n = 1) (in vitro [3]; s9, 0 h, 1 μM): 100%
% Remaining of Initial (n = 1), 0 min (in vitro [3]; s9, 0 h, 1 μM): 100%
% Remaining of Initial (n = 1) (in vitro [3]; s9, 10 min, 1 μM): 59%
% Remaining of Initial (n = 1), 10 min (in vitro [3]; s9, 10 min, 1 μM): 28%
% Remaining of Initial (n = 1) (in vitro [3]; s9, 20 min, 1 μM): 16%
% Remaining of Initial (n = 1), 20 min (in vitro [3]; s9, 20 min, 1 μM): 5.7%
% Remaining of Initial (n = 1), 30 min (in vitro [3]; s9, 0.5 h, 1 μM): 1.2%
% Remaining of Initial (n = 1) (in vitro [3]; s9, 1 h, 1 μM): <1.0%
% Remaining of Initial (n = 1), 60 min (in vitro [3]; s9, 1 h, 1 μM): <1.0%
microsomal CLint at 1 μM (in vitro [3]; s9, CLint): > 69.3 µL/min/mg
microsomal CLint at 1 μM (in vitro [3]; s9, CLint (mL/min/mg protein)): 131 µL/min/mg
microsomal CLint at 1 μM (in vitro [3]; s9, CLint, calculated value in parentheses): 75.3 µL/min/mg
half-life at 1 μM (in vitro [3]; s9, Half-Life, calculated value in parentheses): 9.2 min
half-life at 1 μM (in vitro [3]; s9, Half-life): < 10 min
half-life at 1 μM (in vitro [3]; s9, Half-life (min)): 5.3 min
